Measurements: patent publication US4272507A, “Phenylaminothiophenacetic acids, their synthesis, compositions and use” (priority 1978, dated 1981)
Like-named read-outs stand apart in the source and are kept apart here.

Columns and labels:
[1] = system: carrageenin edema of the hind paw of rats; experiment: Acute antiphlogistic action: carrageenin edema of the hind paw of rats after single oral administration; details: for ED50: Rattus norvegicus, po, read-out: ED50 (dose which causes a maximum edema inhibition of 50%); for Therapeutic quotient LD50/ED50: carrageenin edema, LD50 7 days oral; for Therapeutic quotient LD50/ED50 / Maximum inhibition of carrageenin edema within 7 hours after oral administration: rats
Protocol: (§1) Biol. Med., 111 (1962) 544]}, on chronic inflammatory processes {Cotton pellet test on rats [Winter et al.: J. Pharmacol. exp. Therap., 141 (1963) 369]} and on adjuvant arthritis [based on the method of Perrine et al., Brit. J. Pharmacol., 21 (1963) 127] is determined.
The influence of the compounds to be tested on carrageenin edema of the hind paw of rats was determined as follows:
The rats are kept at 24° C.
The paw volume of each rat is determined (2 to 3 individual measurements in each case) before edema provocation and at hourly intervals for 7 hours after edema provacation. The average percentage paw swelling of each treated group determined at the specified times after the carrageenin injection is related to that of the untreated control group (=100%).
The maximum percentage edema inhibition serves as a measure of the antiphlogistic action.
The paw volume is determined plethysmometrically. Measuring principle: the volume of liquid displaced through the paw of the rat is recorded digitally via an electromechanical pressure transducer (Statham P 23 V, 0-200 mm Hg).
The doses indicated for the compounds tested were administered in a volume of liquid of 20 ml/kg.

[2] = Chronic antiphlogistic action: cotton pellet test (formation of granulation tissue) in rats; details: rat, in vivo, po
Protocol: as §1
(§2) Experimental procedure for investigating the influence of the compounds to be tested on the formation of granulation tissue after implantation of cotton in rats (so-called cotton pellet method):
(§3) 1 cotton pellet (manufacturer: Messrs. Hartmann/Heidenheim; cotton pellets size 2, No. 4865/2) which weighs 13.0±0.5 mg and has been impregnated beforehand with 0.1 ml of a solution of 0.5 mg of penicillin G and 0.8 mg of streptomycin sulfate/1 ml of distilled water is in each case implanted subcutaneously into the shoulder-blade region, on both sides, of male Sprague-Dawley rats (groups of 8 animals each; weight of each animal: 150 to 170 g) under diethyl ether anaesthesia and under sterile conditions. The cut skin is closed by means of clamps.
(§4) The compounds to be tested (in the form of the sodium salt in aqueous solution) or the corresponding amount (5 ml/kg/day) of tapwater (=control group) are administered orally each day on seven successive days. On the eighth day, the animals are killed and the cotton granules are exposed carefully, that is to say preserving the fibrous tissue capsule, dried (15 hours at 120°) and weighed. By substracting the weight of the cotton pellets, the amount of newly formed granulation tissue is obtained.
(§5) The percentage reduction in the average granuloma dry weight of a treated group compared with the control group (=100%) serves as a measure of the antiproliferative action of a compound.

[3] = system: formation of granulation tissue after subcutaneous implantation of cotton; experiment: as above; details: rats; for Therapeutic quotient LD50/ED20: cotton pellet test, LD50 7 days oral; for Inhibition of the formation of granulation tissue after treatment for 7 days: sodium salt
Protocol: as §1, §2, §3, §4, §5

[4] = system: adjuvant arthritis in rats; experiment: Antiarthritic action: adjuvant arthritis in rats (Mycobacterium butyricum); details: for ED25: Rattus norvegicus, po, 120 h, read-out: ED25 (inhibition of adjuvant arthritis of 25%); for therapeutic quotient LD50/ED25: adjuvant arthritis, LD50 7 days oral, rats
Protocol: as §1
The influence of the compounds to be tested on polyarthritis in rats caused by Mycobacterium butyricum (so-called "adjuvant arthritis") was determined using the experimental arrangement hereafter described: based on the method described by NEWBOULD and PERRINE et al. [NEWBOULD, B. B.; Brit. J. Pharmacol. 21, 127 (1963); and PERRINE, J. W. and TAKESUE, E. I.; Arch. int. Pharmacodyn., 174, 192 to 198 (1968)], so-called adjuvant arthritis, which manifests itself chiefly in a severe swelling of the tail (primary lesion) and of the paws (secondary lesion), is caused in rats by intradermal injection of a Mycobact. butyricum suspension in liquid paraffin into the base of the tail. Antiphlogistic agents inhibit this swelling reaction.

[5] = system: pain reaction provoked in rats by bending an inflamed ankle (AgNO3 arthritis); experiment: animal or person; assay type: in vivo; details: for Therapeutic quotient LD50/ED50 / therapeutic quotient LD50/ED25: AgNO3 arthritis pain, LD50 7 days oral; for Therapeutic quotient LD50/ED50 / therapeutic quotient LD50/ED25 / ED50 / Inhibition of the pain reaction: rats; for ED25 / ED50: Rattus norvegicus, po; for ED25: read-out: ED25 (dose which completely suppresses the pain reaction in 25% of the animals); for ED50: perorally, at the time of maximum action, read-out: ED50 (dose which completely suppresses the pain reaction in 50% of the animals)
Protocol: Based on the method of HOFFMEISTER et al. [Arzneim. Forsch., 24, (1974) 600], 0.2 ml of a 1% strength silver nitrate solution is injected into the ankle joint (inside) of the right hind paw of female Sprague-Dawley rats (each animal weighing about 160 to 180 g) under ether anaesthesia. The animals are kept at 24° C. and are fed Altromin®R and water ad libitum. After the AgNO3 injection, almost all the animals (90 to 95%) can be made to cry out by moderate bending of the ankle joint. All the animals reacting positively are collected into groups of 10 animals. The compounds to be tested are administered orally in a volume of liquid of 10 ml/kg immediately after administration of the AgNO3; the untreated control animals receive the corresponding amount of tapwater.
Over a period of 4 hours after administration of the substance, the number of animals reacting is determined at half hourly intervals.
The maximum percentage of the protected animals over a period of 4 hours after administration of the substance [relative to the number of animals in the control group reacting (=100%)] serves as a measure of the analgesic action.

[6] = system: yeast-induced fever in rats; experiment: Antipyretic action: yeast-induced fever in rats; assay type: in vivo, rats (female Sprague-Dawley); details: for ED (1.5 degC): Rattus norvegicus, po, read-out: ED1.5 (dose which causes a maximum reduction in yeast-induced fever of 1.5° C.)
Protocol: The antipyretic action is determined by the influence of the compounds to be tested on yeast-induced fever in rats.
Hyperthermia is produced in female Sprague-Dawley rats (in groups of 5 animals; weight of each animal: 160 to 180 g) by subcutaneous injection (neck) of 10 ml/kg of a 20 percent strength aqueous brewer's yeast suspension (brewer's yeast "Heliosan"/Hefereformwerk Radolfzell). 24 hours after the yeast injection, the compounds to be tested are administered orally to the animals in a volume of liquid of 5 ml/kg, and a control group receives the corresponding amount of tapwater. The feed (Altromin®R, water ad libitum) was withdrawn from the rats 18 hours beforehand. The rats are kept at about 23° C.
The body temperature is recorded 1 hour before administration of the substance and at hourly intervals after administration of the substance.
[…] The body temperature is measured with a temperature probe (Tastomed H, Braun electronic).

in vivo = details: rat, po
rats = details: 7 days (Table 6)
[7] = versus phenylbutazone; cited from earlier work
[8] = versus phenylbutazone; cited from earlier work; remark: listed apart in the source
[9] = rats, single oral dose 0.1 mg/kg
[10] = rats, single oral dose 0.3 mg/kg

| Structure (SMILES) | ED50 [1] [mg/kg] | Therapeutic quotient LD50/ED50 [1] | Maximum inhibition of carrageenin edema within 7 hours after oral administration ([1]; single oral dose 1.0 mg/kg) [%] | Maximum inhibition of carrageenin edema within 7 hours after oral administration ([1]; single oral dose 3.0 mg/kg) [%] | Therapeutic quotient LD50/ED20 [3] | Inhibition of the formation of granulation tissue after treatment for 7 days ([3]; 7 x 0.1 mg/kg/day orally) [%] | Inhibition of the formation of granulation tissue after treatment for 7 days ([3]; 7 x 0.3 mg/kg/day orally) [%] | Inhibition of the formation of granulation tissue after treatment for 7 days ([3]; 7 x 1.0 mg/kg/day orally) [%] | Inhibition of the formation of granulation tissue after treatment for 7 days ([3]; 7 x 3.0 mg/kg/day orally) [%] | ED25 [4] [mg/kg/day] | therapeutic quotient LD50/ED25 [4] | Therapeutic quotient LD50/ED50 [5] | therapeutic quotient LD50/ED25 [5] | ED25 [5] [mg/kg] | ED50 [5] [mg/kg] | Inhibition of the pain reaction ([5]; single oral dose 1 mg/kg) [%] | Inhibition of the pain reaction ([5]; single oral dose 3 mg/kg) [%] | ED (1.5 degC) ([6]; rats, perorally, single dose) [mg/kg] | Maximum reduction in yeast-induced fever over a period of 7 hours ([6]; rats, single oral dose 1 mg/kg) [°C] | LD50 at 168 h (in vivo) [mg/kg] | also measured |
| --- | --- | --- | --- | --- | --- | --- | --- | --- | --- | --- | --- | --- | --- | --- | --- | --- | --- | --- | --- | --- | --- |
| O=C(O)Cc1cscc1Nc1c(Cl)cccc1Cl [Compound 3, 4-(2,6-dichloroanilino)-3-thiophenacetic acid] | 1.6 | 6.9 | 46 | 56 | ~ 11 | 6 | 15 | 14 | 22 | 0.2 | 55 | 3.67 | 11 | 1 | 3 | 26 | 50 | 0.4 | 1.7 | 11 | Maximum inhibition of carrageenin edema within 7 hours after oral administration ([1]; single oral dose 0.3 mg/kg): 29%; mortality at 168 h ([2]; 6 mg/kg/day): 0%; Inhibition of the formation of granulation tissue after treatment for 7 days ([3]; 7 x 5.0 mg/kg/day orally): 22%; Inhibition of the formation of granulation tissue after treatment for 7 days ([3]; 7 x 6.0 mg/kg/day orally): 36%; Inhibition of the pain reaction ([5]; single oral dose 10 mg/kg): 62%; Maximum reduction in yeast-induced fever over a period of 7 hours ([6]; rats, single oral dose 0.03 mg/kg): 0.4 °C; Maximum reduction in yeast-induced fever over a period of 7 hours [6, 9]: 0.8 °C; Maximum reduction in yeast-induced fever over a period of 7 hours [6, 10]: 1.4 °C |
| COc1ccc2c(c1)c(CC(=O)O)c(C)n2C(=O)c1ccc(Cl)cc1 [Compound 2, indomethacin, reference compound] | 4.6 | 1.2 | 29 | 47 | ~ 1.8 | 7 | 11 | 16 | 16 | 0.18 | 30.6 | 0.92 | 4.58 | 1.2 | 6 | 23 | 36 | – | 0.2 | 5.5 | Maximum inhibition of carrageenin edema within 7 hours after oral administration ([1]; single oral dose 10.0 mg/kg): 56%; mortality at 168 h ([2]; 5 mg/kg/day): 25%; Inhibition of the formation of granulation tissue after treatment for 7 days ([3]; 7 x 4.0 mg/kg/day orally): 17%; Inhibition of the pain reaction ([5]; single oral dose 6 mg/kg): 50%; ED (1.5 degC) [6]: 5 mg/kg; Maximum reduction in yeast-induced fever over a period of 7 hours ([6]; rats, single oral dose 3 mg/kg): 0.7 °C; Maximum reduction in yeast-induced fever over a period of 7 hours ([6]; rats, single oral dose 6 mg/kg): 1.8 °C |
| Cc1cccc(C)c1Nc1cscc1CC(=O)O [Compound 9, 4-(2,6-dimethylanilino)-3-thiophenacetic acid] | – | – | – | – | > 10 | – | – | – | 19 | – | – | – | – | – | – | – | – | 0.3 | 2.3 | > 30 | Maximum reduction in yeast-induced fever over a period of 7 hours [6, 9]: 1.0 °C; Maximum reduction in yeast-induced fever over a period of 7 hours [6, 10]: 1.5 °C; Therapeutic quotient LD50/ED2.5 ([6]; yeast-induced fever, LD50 7 days, rats): > 100; LD50, lethal action after administration for 7 days (rats): > 30 mg/kg/day |
| Cc1cccc(Nc2cscc2C(=O)O)c1C [2,3-dimethylphenyl compound] | – | – | – | – | – | – | – | – | – | – | – | – | – | – | – | – | – | – | – | – | antiphlogistic action [7]: comparable to that of phenylbutazone; antipyretic action [8]: superior |
